The test system of data set [1] is SMMC-7721. In words: Cell cycle arrest in human SMMC7721 cells assessed as accumulation at S phase at 1 uM incubated for 48 hrs by propidium iodide staining based flow cytometry (Rvb=6.83%). The class given is functional. In general terms: In flow cytometry, cells or beads pass a laser one at a time.
Data set [2] deals with SMMC-7721. In words: Cell cycle arrest in human SMMC7721 cells assessed as accumulation at G2/M phase at 4 uM incubated for 48 hrs by propidium iodide staining based flow cytometry (Rvb=16.17%). The class given is functional.
Data set [3] concerns SMMC-7721. In words: Induction of apoptosis in human SMMC7721 cells assessed as viable cells at 1 uM incubated for 48 hrs by Annexin-V-FITC/propidium iodide staining based flow cytometry (Rvb=93.5%). Particulars: SMMC-7721, 48 h, read-out: Activity. The data set is classed as functional.
Data set [4] concerns SMMC-7721. The data set is described as follows: Induction of apoptosis in human SMMC7721 cells assessed as necrotic cells at 4 uM incubated for 48 hrs by Annexin-V-FITC/propidium iodide staining based flow cytometry (Rvb=1.88%). The class given is functional.
Data set [5] concerns the target T1, Histone deacetylase 2 (Homo sapiens, UniProt Q92769). In words: Inhibition of human recombinant His-tagged HDAC2 ([…]) expressed in baculovirus infected insect cells using FLUOR DE LYS Green as substrate preincubated for 10 mins followed by substrate addition and measured after 30 mins by fluorescence method.
The test system of data set [6] is SMMC-7721. The data set is described as follows: Induction of apoptosis in human SMMC7721 cells assessed as necrotic cells at 1 uM incubated for 48 hrs by Annexin-V-FITC/propidium iodide staining based flow cytometry (Rvb=1.88%). The data set is classed as functional.
Data set [7] deals with A549. In words: Antiproliferative activity against human A549 cells assessed as reduction in cell growth at 8 uM incubated for 72 hrs by CCK-8 assay relative to control. The class given is functional. The following applies: A549, 72 h. In general terms: Formazan colour is commonly taken as a measure of viable cells.
Data set [8] deals with SMMC-7721. The data set is described as follows: Cell cycle arrest in human SMMC7721 cells assessed as accumulation at S phase at 4 uM incubated for 48 hrs by propidium iodide staining based flow cytometry (Rvb=6.83%). The data set is classed as functional.
In data set [9] the test system is SMMC-7721. The data set is described as follows: Induction of apoptosis in human SMMC7721 cells assessed as viable cells at 4 uM incubated for 48 hrs by Annexin-V-FITC/propidium iodide staining based flow cytometry (Rvb=93.5%). The class given is functional. Particulars: SMMC-7721, 48 h, read-out: Activity.
Data set [10] has as its system A549. The data set is described as follows: Antiproliferative activity against human A549 cells assessed as reduction in cell growth at 2 uM incubated for 72 hrs by CCK-8 assay relative to control. The data set is classed as functional. Particulars: A549, 72 h.
For data set [11], the system named is SMMC-7721. In words: Inhibition of colony formation in human SMMC7721 cells incubated for 10 days by crystal violet staining based assay. The data set is classed as functional, cell-based.
The test system of data set [12] is SMMC-7721. In words: Cell cycle arrest in human SMMC7721 cells assessed as accumulation at S phase incubated for 48 hrs by propidium iodide staining-based flow cytometry. The class given is functional.
Data set [13] concerns SMMC-7721. In words: Induction of apoptosis in human SMMC7721 cells assessed as late apoptotic cells at 0.25 uM incubated for 48 hrs by Annexin-V-FITC/propidium iodide staining based flow cytometry (Rvb=1.73%). The class given is functional.
Data set [14] concerns the target T1, Histone deacetylase 2. The data set is described as follows: Inhibition of HDAC2 in human SMMC7721 cells assessed as increase in H3K9 acetylation at 1uM incubated for 48 hrs by DAPI staining based confocal fluorescence microscopy. The data set is classed as cell-based.
Data set [15] deals with A-375. In words: Antiproliferative activity against human A375 cells assessed as reduction in cell growth at 2 uM incubated for 72 hrs by CCK-8 assay relative to control. The class given is functional. The following applies: A-375, 72 h.
The subject of data set [16] is A-375. The data set is described as follows: Antiproliferative activity against human A375 cells assessed as reduction in cell growth incubated for 72 hrs by CCK-8 assay. The following applies: A-375, 72 h. The class given is functional, cell-based.
The test system of data set [17] is SMMC-7721. The data set is described as follows: Induction of apoptosis in human SMMC7721 cells assessed as necrotic cells at 0.25 uM incubated for 48 hrs by Annexin-V-FITC/propidium iodide staining based flow cytometry (Rvb=1.88%). The data set is classed as functional.
Data set [18] relates to SMMC-7721. The data set is described as follows: Induction of apoptosis in human SMMC7721 cells assessed as early apoptotic cells at 1 uM incubated for 48 hrs by Annexin-V-FITC/propidium iodide staining based flow cytometry (Rvb=2.88%). The data set is classed as functional.
For a further data set, the system named is NIH3T3. In words: Cytotoxicity against mouse NIH/3T3 cells assessed as reduction in cell viability after 48 hrs by CCK8 assay. The following applies: NIH3T3, 48 h. The class given is cell-based.
Data set [19] concerns A549. In words: Antiproliferative activity against human A549 cells assessed as reduction in cell growth incubated for 72 hrs by CCK-8 assay. The class given is functional, cell-based. The following applies: A549, 72 h.
In a further data set the target is Histone deacetylase 1 (Homo sapiens, UniProt Q13547). In words: Inhibition of human recombinant His-tagged HDAC1 (482 residues) expressed in baculovirus infected insect cells using FLUOR DE LYS SIRT1 as substrate incubated for 10 mins followed by substrate addition and measured after 30 mins by fluorescence method.
Sequence of Histone deacetylase 1 (Q13547 whole entry): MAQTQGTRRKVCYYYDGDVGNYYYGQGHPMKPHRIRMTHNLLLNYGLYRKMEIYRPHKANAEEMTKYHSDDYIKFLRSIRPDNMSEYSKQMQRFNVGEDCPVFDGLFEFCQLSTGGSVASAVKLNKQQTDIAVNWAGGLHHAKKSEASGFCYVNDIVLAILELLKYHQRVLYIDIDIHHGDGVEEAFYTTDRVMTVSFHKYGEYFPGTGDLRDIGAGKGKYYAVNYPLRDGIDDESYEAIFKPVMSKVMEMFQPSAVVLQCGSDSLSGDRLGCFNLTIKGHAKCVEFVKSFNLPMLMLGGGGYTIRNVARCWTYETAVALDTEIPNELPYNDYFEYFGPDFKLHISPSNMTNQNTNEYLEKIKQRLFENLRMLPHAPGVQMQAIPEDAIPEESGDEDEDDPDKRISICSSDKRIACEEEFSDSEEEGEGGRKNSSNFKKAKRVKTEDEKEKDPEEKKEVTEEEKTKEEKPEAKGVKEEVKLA
The test system of data set [20] is SMMC-7721. The data set is described as follows: Cell cycle arrest in human SMMC7721 cells assessed as accumulation at G0/G1 phase at 1 uM incubated for 48 hrs by propidium iodide staining based flow cytometry (Rvb=77%). The data set is classed as functional.
Data set [21] has as its system SMMC-7721. The data set is described as follows: Induction of apoptosis in human SMMC7721 cells assessed as late apoptotic cells at 4 uM incubated for 48 hrs by Annexin-V-FITC/propidium iodide staining based flow cytometry (Rvb=1.73%). The data set is classed as functional.
Data set [22] has as its system A549. In words: Antitumor activity against human A549 cells xenografted in BALB/C mouse assessed as reduction in tumor size at 25 mg/kg, ip bid for 21 days measured at 3 days interval during compound dosing by visual analysis. The data set is classed as functional, organism-based. On the technique in general: Xenograft models place foreign cells or tissue in a host animal.

Data set [23] deals with SMMC-7721. The data set is described as follows: Cell cycle arrest in human SMMC7721 cells assessed as accumulation at G2/M phase incubated for 48 hrs by propidium iodide staining-based flow cytometry. The class given is functional.
Data set [24] has as its system A549. In words: Antitumor activity against human A549 cells xenografted in BALB/C mouse assessed as tumor growth inhibition at 25 mg/kg, ip bid for 21 days measured at 3 days interval during compound dosing relative to control. The class given is functional. Particulars: read-out: TGI.
Data set [25] in a line: Toxicity in BALB/C mouse xenografted with human A549 cells assessed as reduction in body weight at 25 mg/kg, ip bid for 21 days measured at 3 days interval during compound dosing. The class given is organism-based. Particulars: in vivo.

SMILES strings stand for the structures. pIC50: −log10 of the molar value. Activity calls are given as the source filed them. The calls are words filed in the database; no cut-off is given here.

T1 sequence (Q92769 whole entry): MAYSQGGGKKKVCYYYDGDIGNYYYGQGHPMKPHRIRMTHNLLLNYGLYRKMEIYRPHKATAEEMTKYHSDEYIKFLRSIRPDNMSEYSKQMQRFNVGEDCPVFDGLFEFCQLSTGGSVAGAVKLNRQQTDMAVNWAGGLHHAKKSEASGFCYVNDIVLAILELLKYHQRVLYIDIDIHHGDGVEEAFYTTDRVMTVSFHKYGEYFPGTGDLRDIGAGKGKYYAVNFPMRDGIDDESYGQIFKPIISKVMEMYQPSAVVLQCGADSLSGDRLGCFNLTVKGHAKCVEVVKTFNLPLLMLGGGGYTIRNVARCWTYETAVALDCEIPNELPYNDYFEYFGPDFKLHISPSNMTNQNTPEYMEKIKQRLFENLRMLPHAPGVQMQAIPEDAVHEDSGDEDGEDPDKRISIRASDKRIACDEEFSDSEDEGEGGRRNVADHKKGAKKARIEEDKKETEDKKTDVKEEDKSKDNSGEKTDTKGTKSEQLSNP

`Cn1c(SCc2ccc(C(=O)Nc3ccccc3N)cc2)nc2cc(Br)ccc2c1=O`: the Activity is 18.28% with SMMC-7721 [1]; 19.19% in the data set with SMMC-7721 [2]; 15.1% in the data set with SMMC-7721 [4]; 13.6% in the data set with SMMC-7721 [6]; 24.16% in the data set with SMMC-7721 [8]; “Dose-dependent effect” in the data set on SMMC-7721 [12]. Moreover, the Activity was 9.88% with SMMC-7721 [13]; 4.73% in the data set on SMMC-7721 [17]; 3.12% in the data set with SMMC-7721 [18]; 56.35% with SMMC-7721 [20]; 51.4% in the data set on SMMC-7721 [21]. Further, in the data set on SMMC-7721 [3], the viability at 1 µM was 49.5%. In addition, the pIC50 (commonly the IC50 on a negative log10 scale, so that one unit is a factor of ten) is 6.28 on Histone deacetylase 2 [5]; 5.55 with A-375 [16]; 5.40 in the data set with NIH3T3; 5.34 in the data set on A549 [19]; 6.54 on Histone deacetylase 1. Moreover, in the data set with A549 [7], the inhibition (commonly the drop in the measured response relative to a control, in per cent) at 8 µM is 66.2%. In addition, in the data set on SMMC-7721 [9], the viability at 4 µM turned out to be 26.9%. For the same molecule, the figures for the inhibition at 2 µM with A549 [10] and in the data set on A-375 [15] were 37.5% and 34.5%, respectively. In addition, in the data set on SMMC-7721 [11], the inhibition result was “Dose-dependent effect”. For the same molecule, the inhibition entry on Histone deacetylase 2 [14] was “Active”.
As to `CCn1c(SCc2ccc(/C=C/C(=O)Nc3ccccc3N)cc2)nc2cc(OC)ccc2c1=O`, the Activity was 16.13% in the data set with SMMC-7721 [1]; 17.68% in the data set on SMMC-7721 [2]; 10% in the data set with SMMC-7721 [4]; 8.91% with SMMC-7721 [6]; 28.7% with SMMC-7721 [8]; “Dose-dependent effect” in the data set on SMMC-7721 [12]. Moreover, the Activity came out at 9.65% in the data set with SMMC-7721 [13]; 4.51% in the data set on SMMC-7721 [17]; 16.4% in the data set with SMMC-7721 [18]; 50.71% in the data set with SMMC-7721 [20]; 38.2% in the data set with SMMC-7721 [21]. Also, the viability at 1 µM in the data set on SMMC-7721 [3] came out at 45.8%. Moreover, the pIC50 at Histone deacetylase 2 [5] is 6.74; in the data set on A-375 [16] it was 6.03; with NIH3T3, 5.32; in the data set with A549 [19], 5.75; on Histone deacetylase 1, 7.00. Further, the inhibition at 8 µM in the data set on A549 [7] was found to be 78.2%. The viability at 4 µM with SMMC-7721 [9] was found to be 41.3%. Further, the inhibition at 2 µM was 18.6% in the data set on A549 [10] and 55% in the data set on A-375 [15]. Besides, the inhibition entry in the data set with SMMC-7721 [11] is “Dose-dependent effect”. In addition, the inhibition result on Histone deacetylase 2 [14] is “Active”.
As to `COc1ccc2c(=O)n(-c3ccccc3Cl)c(SCc3ccc(C(=O)Nc4ccccc4N)cc3)nc2c1`, the Activity in the data set with SMMC-7721 [1] is 28.44%; in the data set with SMMC-7721 [2], 27.3%; in the data set on SMMC-7721 [4], 8.28%; with SMMC-7721 [6], 7.63%; with SMMC-7721 [8] it was 45.18%; with SMMC-7721 [12], “Dose-dependent effect”. For the same molecule, the Activity is 13.1% with SMMC-7721 [13]; 2.7% with SMMC-7721 [17]; 7.67% with SMMC-7721 [18]; 34.49% with SMMC-7721 [20]; 20.4% in the data set with SMMC-7721 [21]. For the same molecule, the viability at 1 µM in the data set with SMMC-7721 [3] came to 65.6%. For the same molecule, the pIC50 is 6.21 on Histone deacetylase 2 [5]; 5.45 with A-375 [16]; 5.47 in the data set on NIH3T3; 5.20 with A549 [19]; 6.42 on Histone deacetylase 1. Besides, the inhibition at 8 µM in the data set with A549 [7] stood at 80.6%. Also, the viability at 4 µM with SMMC-7721 [9] was 65.8%. Moreover, the inhibition at 2 µM in the data set with A549 [10] was 52.5%; in the data set on A-375 [15], 41.8%. Also, the inhibition entry in the data set with SMMC-7721 [11] was “Dose-dependent effect”. Further, on Histone deacetylase 2 [14], the inhibition result is “Active”.
Consider `COc1ccc2c(=O)n(C)c(SCc3ccc(C(=O)Nc4ccccc4N)cc3)nc2c1`, for which the Activity in the data set on SMMC-7721 [1] was found to be 19.34%; with SMMC-7721 [2], 31.22%; with SMMC-7721 [4], 10.6%; in the data set with SMMC-7721 [6], 10.8%; with SMMC-7721 [8], 22.52%; with SMMC-7721 [13], 18.9%. Also, the Activity entry in the data set with SMMC-7721 [23] is “Dose-dependent effect”; in the data set on SMMC-7721 [17] it was 5.77%; in data set [25], “Non-Toxic”; with SMMC-7721 [18], 11.6%; in the data set with SMMC-7721 [20], 58.1%; with SMMC-7721 [21], 54.8%. In addition, the viability at 1 µM in the data set on SMMC-7721 [3] was 32.3%. Moreover, the pIC50 on Histone deacetylase 2 [5] is 6.80; in the data set with A-375 [16], 6.01; in the data set on NIH3T3 it was 5.60; with A549 [19] it was 5.51; on Histone deacetylase 1 it was 8.00. Besides, the inhibition at 8 µM in the data set on A549 [7] amounted to 82.8%. Also, the viability at 4 µM in the data set with SMMC-7721 [9] is 21.7%. For the same molecule, in the data set with A549 [22], the outcome was Active. The values for the inhibition at 2 µM with A549 [10] and in the data set on A-375 [15] were 38% and 52.2%, respectively. For the same molecule, the inhibition entry with SMMC-7721 [11] was “Dose-dependent effect”. Besides, the inhibition entry on Histone deacetylase 2 [14] was “Active”. Further, in the data set with A549 [24], the inhibition in vivo at 25 mg/kg was found to be 62.5%.

These data come from ChEMBL document CHEMBL4393680, “Design, synthesis and biological evaluation of novel thioquinazolinone-based 2-aminobenzamide derivatives as potent histone deacetylase (HDAC) inhibitors” (Eur J Med Chem, 2019).
